According to article PMC3596500 (Pharmaceutical research, 2012):
“Also recorded” adds a separate entry of the source. Where two headings read alike, the source gives them in different places. Blank lines part the entries; values can stand above or below the compound they belong to. Square brackets hold non-standard residues; d marks the D form. Peptide text beside a SMILES is read from it. Sar = CNCC(=O)O

Key:
[1] = molecular target: T1, PepT1 (Mus musculus, UniProt Q9JIP7); details: 25 mM inhibitor co-perfused with 10 μM cefadroxil, pH 6.5, wild-type mice
T1 sequence (Q9JIP7 1-709): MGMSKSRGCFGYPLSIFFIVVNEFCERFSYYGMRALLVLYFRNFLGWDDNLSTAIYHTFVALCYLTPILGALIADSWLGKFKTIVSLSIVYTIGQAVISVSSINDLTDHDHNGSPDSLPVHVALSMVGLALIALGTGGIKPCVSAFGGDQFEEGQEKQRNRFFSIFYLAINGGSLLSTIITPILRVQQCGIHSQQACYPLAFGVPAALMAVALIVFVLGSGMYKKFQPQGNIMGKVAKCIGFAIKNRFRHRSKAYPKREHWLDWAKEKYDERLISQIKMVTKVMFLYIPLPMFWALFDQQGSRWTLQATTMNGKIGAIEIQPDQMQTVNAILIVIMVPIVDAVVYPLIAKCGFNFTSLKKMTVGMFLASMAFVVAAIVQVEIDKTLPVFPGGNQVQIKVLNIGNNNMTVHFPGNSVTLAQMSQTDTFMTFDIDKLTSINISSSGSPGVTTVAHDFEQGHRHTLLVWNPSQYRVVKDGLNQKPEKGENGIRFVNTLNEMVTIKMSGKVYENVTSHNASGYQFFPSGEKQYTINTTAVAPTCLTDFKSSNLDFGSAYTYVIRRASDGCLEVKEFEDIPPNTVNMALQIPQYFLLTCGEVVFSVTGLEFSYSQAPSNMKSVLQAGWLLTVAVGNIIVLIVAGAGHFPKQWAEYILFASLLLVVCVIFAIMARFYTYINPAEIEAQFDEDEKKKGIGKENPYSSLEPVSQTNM

[2] = molecular target: T1, PepT1; experiment: Co-perfusion of cefadroxil with dimethyl-amiloride; details: 0.1 mM DMA co-perfused with 10 μM cefadroxil, pH 6.5, wild-type mice
[3] = molecular target: T1, PepT1; assay type: in vivo, mice; details: wild-type mice, 10 μM cefadroxil, pH 6.5
[4] = system: PepT1; assay type: in vivo, mice; details: for Peff: 10 μM cefadroxil, pH 6.5
[5] = molecular target: T1, PepT1; experiment: pH-dependent jejunal permeability of cefadroxil, in situ perfusion; assay type: in vivo; details: 10 μM cefadroxil, jejunum, wild-type mice, pH 5.5 to 7.5
[6] = mouse, in vivo, po
[7] = cited from earlier work
[8] = cited from earlier work; remark: listed apart in the source
[9] = system: PepT1; details: PepT1 cRNA-injected Xenopus oocytes; cited from earlier work
[10] = system: Caco-2 cells; details: cited from earlier work
[11] = system: PepT1; details: cited from earlier work
[12] = in situ perfusions in proximal small intestine, cited from earlier work
[13] = molecular target: T1, PepT1; details: jejunum, wild-type mice, pH 6.5
[14] = after oral dipeptide administration; cited from earlier work

SMILES: CC[N+](CC)(CC)CC [TEA]
- effect on jejunal effective permeability of cefadroxil [1]: lack of effect

SMILES: CN(C)c1nc(N)c(C(=O)NC(=N)N)nc1Cl [DMA, 5-(N,N-dimethyl)amiloride]
- effect on PepT1-mediated jejunal permeability/uptake of cefadroxil [2]: inhibited
- reduction of cefadroxil permeability [2]: about 60%

SMILES: CC(=O)OCC1=C(C(=O)O)N2C(=O)[C@@H](NC(=O)Cc3cccs3)[C@H]2SC1 [cephalothin]
- effect on jejunal effective permeability of cefadroxil [1]: not affected; also recorded: no significant effect; also recorded: lack of effect

SMILES: NCC(=O)O [Gly, glycine]
- effect on jejunal effective permeability of cefadroxil [1]: no significant effect

Second part, led by results:

- effect on jejunal effective permeability of cefadroxil [1]: no significant effect
SMILES: CNC(=O)c1cccnc1 [NMN, N-methylnicotinamide]

- effect on jejunal effective permeability of cefadroxil [1]: no significant effect
SMILES: N[C@@H](Cc1c[nH]cn1)C(=O)O [L-His, L-histidine]

- effect on jejunal effective permeability of cefadroxil [1]: significantly decreased
SMILES: NCC(=O)N1CCC[C@H]1C(=O)O [GlyPro, glycylproline] (H-Gly-Pro-OH)

- Peff ([3]; duodenum): 49 ×10⁻⁶ cm/s
- Peff ([3]; ileum): 88 ×10⁻⁶ cm/s
- Peff ([3]; jejunum): 80 ×10⁻⁶ cm/s
- Peff ([4]; PepT1 knockout mice, colon): 3.2 ×10⁻⁶ cm/s
- Peff ([4]; PepT1 knockout mice, ileum): 4.2 ×10⁻⁶ cm/s
- Peff ([4]; PepT1 knockout mice, jejunum): 9 ×10⁻⁶ cm/s
- difference between genotypes in the permeability in colon ([4]; colon, wild-type vs PepT1 knockout): no significant difference
- permeability in PepT1 knockout mice as compared to wild-type mice ([4]; duodenum): 4%
- permeability in PepT1 knockout mice as compared to wild-type mice ([4]; ileum): 5%
- permeability in PepT1 knockout mice as compared to wild-type mice ([4]; jejunum): 12%
- Peff ([4]; wild-type mice, colon): 6.4 ×10⁻⁶ cm/s
- Tmax increase, PepT1 knockout vs wild-type [6]: ~4 fold
- K′m (apparent) ([13]; based on bulk fluid (inlet) concentrations): 3.8 ± 1.2 mM
- Vmax (intrinsic) ([13]; referenced to membrane surface concentration Cw): 4.5 ± 0.3 nmol/cm^2/sec
SMILES: CC1=C(C(=O)O)N2C(=O)[C@@H](NC(=O)[C@H](N)c3ccc(O)cc3)[C@H]2SC1 [cefadroxil]
- effect of perfusate pH on effective permeability [5]: no significant differences; also recorded: not significantly affected
- half-life [7]: ~ 95 min
- binding to plasma proteins [8]: about 20%
- Michaelis constant [9]: 1.1 mM
- decrease of uptake ([10]; further reducing the pH to 5.5): 50%
- increase of drug uptake ([10]; shifting the pH from 7.4 to 6.0): about 4 fold
- effect on jejunal permeability of GlySar ([11]; co-perfusion of cefadroxil at saturating concentrations, wild-type mice): significantly reduced
- Michaelis constant ([12]; ref 12): 5.9 mM
- Michaelis constant ([12]; ref 13): 6.6 mM

- effect on jejunal effective permeability of cefadroxil [1]: significantly decreased
SMILES: CN(CC(=O)O)C(=O)CN [GlySar, glycylsarcosine] (H-Gly-[Sar]-OH)
- increase of permeability ([11]; pH 5.5, in situ perfusion, mice): 36%
- reduction (systemic exposure) in PepT1 knockout vs. wild-type mice [14]: ~2 fold
